# Assay results taken from patent EP1565179B1, “COMPOSITION COMPRISING A CARBAMIC ACID DERIVATIVE, ITS USE AS COSMETIC AND MEDICINE” (Laboratoires Expanscience, priority 2002, dated 2004).
# What was measured:
# [1] = test system: cellules de Langerhans (CL) et cellules dendritiques (CD); assay: Migration of skin dendritic cells (FITC+) to draining lymph nodes in mice after topical FITC hapten application; type: in vivo, souris; conditions: 0,5% topical formulation on mouse ears twice daily for 4 days; 1,5% FITC; lymph nodes analysed 24 h later
# Source text: Le FITC (Fluorescéine isothiocyanate, Sigma, St. Louis, MO) a été dilué extemporanément dans un mélange acétone: dibutylphthalate (1:1).
# L'acide carbamique A (acide 1-Hydroxyméthyl-tridécyl carbamique) et le LU105 (LU 105 est un inhibiteur de MMPs, correspondant à un extrait peptidique de lupin blanc commercialisé par la Société Expanscience sous le nom de marque Actimp 193®) ont été fournis par les "Laboratoires Expanscience", et formulés seuls ou en association dans un véhicule inerte compatible avec une application topique tel que décrit à l'exemple 1 ci-dessus [Acide carbamique A (0,5%) ± LU105 (2%)]. Les différentes formulations ont été appliquées sur les oreilles de souris deux fois par jour pendant 4 jours consécutifs. Trois heures après la dernière application, 1,5% de FITC sont appliqués sur les deux oreilles (l'une traitée et l'autre non traitée (Contrôle)).
# L'effet des deux molécules a été évalué in vivo chez la souris. La peau des deux oreilles est badigeonnée avec 1,5% FITC (2X5 µl). 24 h après, les souris sont sacrifiées et une suspension cellulaire est préparée à partir des ganglions auriculaires et cervicaux (ganglions drainants, ci-après dénommés GL) ou à partir des ganglions popliteaux (ganglions non drainants, contrôle négatif). Les tissus ont été découpés et les cellules sont séparées par filtration (filtre […], Falcon; Becton Dickinson), puis lavés. […]
# [2] = test system: cellules dendritiques générées in vitro à partir de précurseurs CD34+ issus de sang de cordon; assay: Migration of hapten BB-sensitised in vitro generated dendritic/Langerhans cells through Matrigel in a two-compartment culture chamber; type: cell-based
# Method: Des cellules mononuclées ont été obtenues à partir de sang de cordon ombilical de donneurs sains, par centrifugation sur Ficoll. Les cellules CD34+ ont ensuite été purifiées par immunosélection à l'aide d'anticorps spécifique et de billes magnétiques (Miltenyi Biotech, Allemagne). Les cellules CD34+ ont été cultivées en présence de GM-CSF (100 ng/ml), TNF-α (2,5 ng/ml) en RPMI additionné de 10% sérum de veau foetal, pendant 5 jours. L'addition de TGF-β1, facteur qui favorise la différenciation des cellules vers la voie cellules de Langerhans, a été réalisée au cinquième jour de culture.
# Le milieu de base choisi pour l'ensemble de l'étude a été le RPMI 1640 (Gibco BRL, France). Le composé A fourni par EXPANSCIENCE, à la concentration de 10^-2 M en solution dans du DMSO (Diméthyl Sulfoxide), a été dilué en RPMI-1640 et testé à 1 µM.
# Les cellules ont été traitées, au septième jour, par l'haptène BB (Base de Brandowski, 1,17 µg/ml), pendant 24 h, puis soumises au test de migration.
# Un système de chambre de culture à deux compartiments (Falcon, Becton Dickinson, France) a été utilisé. Le compartiment supérieur est séparé du compartiment inférieur par une membrane de porosité 8 µm, sur laquelle sont déposées 50 µg/cm^2 de Matrigel. […]
compound,measurement,setting,value
"CCCCCCCCCCCCC(CO)NC(=O)O (stereo not drawn) [Composé A, (1-Hydroxyméthyl-tridécyl)-acide carbamique]",Inhibition de la migration en %,[1],25%
same,Pourcentage de cellules dendritiques générées in vitro ayant migré,"[2]; 1 µM, cells sensitised with hapten BB (1,17 µg/ml, 24 h), 18 h incubation at 37°C, BB-only control 20",15%
same,inhibition at 1 µM,[2]; read-out: inhibition de la migration des cellules dendritiques générées in vitro et activées par l'haptène BB,25%
